According to patent US9770026B2, “Substituted pyrimidine compound and uses thereof” (Shenyang Sinochem Agrochemicals R&D Co., Ltd., priority 2012, dated 2017):

What was measured:
Diamond back moth = assay: insecticidal activity against diamond back moth, airbrush spray; assay type: in vivo
Outline: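 Airbrush leaf-disc spray test: both faces of 2 cm cabbage discs received 0.5 ml of test solution at 0.7 kg/cm^2. Solutions were made in acetone:methanol (1:1) and brought to concentration with 0.1% Tween 80 in water. Ten second-instar larvae per disc, triplicates, were held at 25° C and 60˜70% R.H., with mortality recorded at 72 hrs.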

armyworm = assay: bioactivity test against armyworm, airbrush spray; assay type: in vivo
[1] = test system: Green peach aphids (Myzus Persicae Sulzer); assay: bioactivity test against green peach aphid, airbrush foliar spray; assay type: in vivo
Outline: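 Aphids (15-30 per cabbage leaf disc) on moist filter paper were airbrush-sprayed at 10 psi, 0.5 mL, with compound from acetone:methanol (1:1) diluted in water with 0.1% tween 80. Held at 25±1 C, 60±5% RH; survivors counted after 48 hrs to give death rates.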

carmine spider mite = assay: bioactivity test against carmine spider mite, airbrush spray; assay type: in vivo
Outline: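 Broadbean seedlings infested with adult mites were sprayed with compound (acetone/methanol stock diluted in 0.1% Tween 80 water) by airbrush at 0.7 kg/cm^2, 0.5 ml. Three replicates were run. Mortality was scored after 72 hrs.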

corn rust = assay: protectant activity in vivo against corn rust
wheat powdery mildew = assay: protectant activity in vivo against wheat powdery mildew; conditions: for pest or weed control at 6.25 µg/mL: read-out: control effect against wheat powdery mildew (%), 6.25 mg/L; for pest or weed control at 25 µg/mL: read-out: control effect against wheat powdery mildew (%), 25 mg/L; for pest or weed control at 100 µg/mL: read-out: control effect against wheat powdery mildew (%), 100 mg/L; for pest or weed control at 400 µg/mL: read-out: control effect against wheat powdery mildew (%), 400 mg/L; for pest or weed control at 25 ppm: read-out: protectant activity against wheat powdery mildew in vivo, 25 ppm
cucumber downy mildew = assay: protectant activity in vivo against cucumber downy mildew; conditions: for pest or weed control at 25 ppm: read-out: protectant activity against cucumber downy mildew in vivo, 25 ppm
[2] = 100 ppm, mortality after 72 hrs
[3] = 600 ppm, mortality after 72 hrs
[4] = 72 h, 100 ppm, mortality after 72 h
[5] = 10 ppm, death rate after 48 hrs
[6] = 100 ppm, death rate after 48 hrs
[7] = 600 ppm, death rate after 48 hrs
[8] = Triticum aestivum, 168 h, protectant activity

CCc1ncnc(NCCc2ccc(Oc3ccc(C(F)(F)F)cn3)cc2)c1Cl [Compound I-6765]
control (test results against diamond back moth) (Diamond back moth; [2]): 100%
control (test results against diamond back moth) (Diamond back moth; [3]): 100%
control (test results against armyworm) (armyworm; 600 ppm, mortality after 72 h): 100%
pest or weed control at 100 ppm (armyworm; [4]): 100%
Insecticidal activity against peach aphid (%) ([1]; 1.25 mg/L, contrastive test): 84%
Insecticidal activity against peach aphid (%) ([1]; 2.5 mg/L, contrastive test): 100%
Insecticidal activity against peach aphid (%) ([1]; 5 mg/L, contrastive test): 100%
Insecticidal activity against peach aphid (%) ([1]; 10 mg/L, contrastive test): 100%
Insecticidal activity against peach aphid (%) ([1]; 100 mg/L, contrastive test): 100%
Insecticidal activity against peach aphid (%) ([1]; 600 mg/L, contrastive test): 100%
control (test results against green peach aphid) ([1]; 2.5 ppm, death rate after 48 hrs): 100%
control (test results against green peach aphid) ([1]; 5 ppm, death rate after 48 hrs): 100%
control (test results against green peach aphid) [1, 5]: 100%
control (test results against green peach aphid) [1, 6]: 100%
control (test results against green peach aphid) [1, 7]: 100%
Insecticidal activity against carmine spider mite (% ) (carmine spider mite; 10 mg/L, contrastive test): 100%
Insecticidal activity against carmine spider mite (% ) (carmine spider mite; 100 mg/L, contrastive test): 100%
Insecticidal activity against carmine spider mite (% ) (carmine spider mite; 600 mg/L, contrastive test): 100%
control against carmine spider mite (carmine spider mite; 10 ppm, mortality after 72 hrs): 100%
control against carmine spider mite (carmine spider mite; [2]): 100%
control against carmine spider mite (carmine spider mite; [3]): 100%
protectant activity against corn rust in vivo (corn rust; 100 ppm): 100%
protectant activity against corn rust in vivo (corn rust; 400 ppm): 100%
protectant activity against wheat powdery mildew in vivo (wheat powdery mildew; 6.25 ppm): 100%
protectant activity against wheat powdery mildew in vivo (wheat powdery mildew; 100 ppm): 100%
protectant activity against wheat powdery mildew in vivo (wheat powdery mildew; 400 ppm): 100%
pest or weed control at 6.25 µg/mL (wheat powdery mildew; [8]): 100%
pest or weed control at 25 µg/mL (wheat powdery mildew; [8]): 100%
pest or weed control at 100 µg/mL (wheat powdery mildew; [8]): 100%
pest or weed control at 400 µg/mL (wheat powdery mildew; [8]): 100%
pest or weed control at 25 ppm (wheat powdery mildew; Triticum aestivum, 168 h): 100%
protectant activity against cucumber downy mildew in vivo (cucumber downy mildew; 50 ppm): 100%
protectant activity against cucumber downy mildew in vivo (cucumber downy mildew; 100 ppm): 100%
protectant activity against cucumber downy mildew in vivo (cucumber downy mildew; 400 ppm): 100%
pest or weed control at 6.25 ppm (cucumber downy mildew; Cucumis sativus, 168 h, read-out: protectant activity against cucumber downy mildew in vivo, 6.25 ppm): 80 to 99%
pest or weed control at 12.5 ppm (cucumber downy mildew; Cucumis sativus, 168 h, read-out: protectant activity against cucumber downy mildew in vivo, 12.5 ppm): 80 to 99%
pest or weed control at 25 ppm (cucumber downy mildew; Cucumis sativus, 168 h): 100%

Cc1ncnc(NCCc2ccc(Oc3ccc(C#N)cc3F)cc2)c1Cl [II-204]
Insecticidal activity against diamond back moth (%) (Diamond back moth; 10 mg/L): 20%
Insecticidal activity against diamond back moth (%) (Diamond back moth; 100 mg/L): 100%
Insecticidal activity against diamond back moth (%) (Diamond back moth; 600 mg/L): 100%
control (test results against diamond back moth) (Diamond back moth; [2]): 100%
control (test results against diamond back moth) (Diamond back moth; [3]): 100%
Insecticidal activity against armyworm (%) (armyworm; 10 mg/L): 47%
Insecticidal activity against armyworm (%) (armyworm; 100 mg/L): 100%
Insecticidal activity against armyworm (%) (armyworm; 600 mg/L): 100%
control (test results against armyworm) (armyworm; 100 ppm, mortality after 72 h): 100%
control (test results against armyworm) (armyworm; 600 ppm, mortality after 72 h): 100%
Insecticidal activity against peach aphid (%) ([1]; 1.25 mg/L, contrastive test): 60%
Insecticidal activity against peach aphid (%) ([1]; 2.5 mg/L, contrastive test): 97%
Insecticidal activity against peach aphid (%) ([1]; 5 mg/L, contrastive test): 100%
Insecticidal activity against peach aphid (%) ([1]; 10 mg/L, contrastive test): 100%
Insecticidal activity against peach aphid (%) ([1]; 100 mg/L, contrastive test): 100%
Insecticidal activity against peach aphid (%) ([1]; 600 mg/L, contrastive test): 100%
control (test results against green peach aphid) ([1]; 5 ppm, death rate after 48 hrs): 100%
control (test results against green peach aphid) [1, 5]: 100%
control (test results against green peach aphid) [1, 6]: 100%
control (test results against green peach aphid) [1, 7]: 100%
Insecticidal activity against carmine spider mite (% ) (carmine spider mite; 2.5 mg/L): 60%
Insecticidal activity against carmine spider mite (% ) (carmine spider mite; 5 mg/L): 80%
Insecticidal activity against carmine spider mite (% ) (carmine spider mite; 10 mg/L, contrastive test): 100%
Insecticidal activity against carmine spider mite (% ) (carmine spider mite; 100 mg/L, contrastive test): 100%
Insecticidal activity against carmine spider mite (% ) (carmine spider mite; 600 mg/L, contrastive test): 100%
control against carmine spider mite (carmine spider mite; 10 ppm, mortality after 72 hrs): 100%
control against carmine spider mite (carmine spider mite; [2]): 100%
control against carmine spider mite (carmine spider mite; [3]): 100%
protectant activity against corn rust in vivo (corn rust; 25 ppm): 100%
protectant activity against corn rust in vivo (corn rust; 100 ppm): 100%
protectant activity against corn rust in vivo (corn rust; 400 ppm): 100%
control effect against wheat powdery mildew (%) (wheat powdery mildew; 6.25 mg/L, protectant activity): 100%
control effect against wheat powdery mildew (%) (wheat powdery mildew; 25 mg/L, protectant activity): 100%
control effect against wheat powdery mildew (%) (wheat powdery mildew; 100 mg/L, protectant activity): 100%
control effect against wheat powdery mildew (%) (wheat powdery mildew; 400 mg/L, protectant activity): 100%
protectant activity against wheat powdery mildew in vivo (wheat powdery mildew; 6.25 ppm): 100%
protectant activity against wheat powdery mildew in vivo (wheat powdery mildew; 25 ppm): 100%
protectant activity against wheat powdery mildew in vivo (wheat powdery mildew; 100 ppm): 100%
protectant activity against wheat powdery mildew in vivo (wheat powdery mildew; 400 ppm): 100%
protectant activity against cucumber downy mildew in vivo (cucumber downy mildew; 25 ppm): 100%
protectant activity against cucumber downy mildew in vivo (cucumber downy mildew; 50 ppm): 100%
protectant activity against cucumber downy mildew in vivo (cucumber downy mildew; 100 ppm): 100%
protectant activity against cucumber downy mildew in vivo (cucumber downy mildew; 400 ppm): 100%

CCc1ncnc(NCCc2ccc(Oc3ccc(Cl)cc3)cc2)c1Cl [II-297]
pest or weed control at 600 ppm (Diamond back moth; 72 h, 600 ppm, mortality after 72 hrs, read-out: control (test results against diamond back moth)): 100%
pest or weed control at 10 µg/mL (armyworm; 72 h, 10 mg/L, read-out: Insecticidal activity against armyworm (%)): 30%
pest or weed control at 100 µg/mL (armyworm; 72 h, 100 mg/L, read-out: Insecticidal activity against armyworm (%)): 95%
pest or weed control at 600 µg/mL (armyworm; 72 h, 600 mg/L, read-out: Insecticidal activity against armyworm (%)): 100%
pest or weed control at 100 ppm (armyworm; [4]): 80 to 99%
pest or weed control at 600 ppm (armyworm; 72 h, 600 ppm, mortality after 72 h): 100%
pest or weed control at 1.25 µg/mL ([1]; Myzus persicae, foliar, 48 h, 1.25 mg/L, contrastive test, read-out: Insecticidal activity against peach aphid (%)): 93%
pest or weed control at 2.5 µg/mL ([1]; Myzus persicae, foliar, 48 h, 2.5 mg/L, contrastive test, read-out: Insecticidal activity against peach aphid (%)): 100%
pest or weed control at 5 µg/mL ([1]; Myzus persicae, foliar, 48 h, 5 mg/L, contrastive test, read-out: Insecticidal activity against peach aphid (%)): 100%
pest or weed control at 10 µg/mL ([1]; Myzus persicae, foliar, 48 h, 10 mg/L, contrastive test, read-out: Insecticidal activity against peach aphid (%)): 100%
pest or weed control at 100 µg/mL ([1]; Myzus persicae, foliar, 48 h, 100 mg/L, contrastive test, read-out: Insecticidal activity against peach aphid (%)): 100%
pest or weed control at 600 µg/mL ([1]; Myzus persicae, foliar, 48 h, 600 mg/L, contrastive test, read-out: Insecticidal activity against peach aphid (%)): 100%
pest or weed control at 2.5 ppm ([1]; Myzus persicae, foliar, 48 h, 2.5 ppm, death rate after 48 hrs): 100%
pest or weed control at 5 ppm ([1]; Myzus persicae, foliar, 48 h, 5 ppm, death rate after 48 hrs): 100%
pest or weed control at 10 ppm ([1]; Myzus persicae, foliar, 48 h, 10 ppm, death rate after 48 hrs): 100%
pest or weed control at 100 ppm ([1]; Myzus persicae, foliar, 48 h, 100 ppm, death rate after 48 hrs): 100%
pest or weed control at 600 ppm ([1]; Myzus persicae, foliar, 48 h, 600 ppm, death rate after 48 hrs): 100%
pest or weed control at 10 µg/mL (carmine spider mite; Tetranychus cinnabarinus, 72 h, 10 mg/L, contrastive test, read-out: Insecticidal activity against carmine spider mite (% )): 74%
pest or weed control at 100 µg/mL (carmine spider mite; Tetranychus cinnabarinus, 72 h, 100 mg/L, contrastive test, read-out: Insecticidal activity against carmine spider mite (% )): 100%
pest or weed control at 600 µg/mL (carmine spider mite; Tetranychus cinnabarinus, 72 h, 600 mg/L, contrastive test, read-out: Insecticidal activity against carmine spider mite (% )): 100%
pest or weed control at 100 ppm (carmine spider mite; Tetranychus cinnabarinus, 72 h, 100 ppm, mortality after 72 hrs): 100%
pest or weed control at 600 ppm (carmine spider mite; Tetranychus cinnabarinus, 72 h, 600 ppm, mortality after 72 hrs): 100%
pest or weed control at 6.25 ppm (corn rust; Zea mays, 168 h, read-out: protectant activity against corn rust in vivo, 6.25 ppm): 80 to 99%
pest or weed control at 25 ppm (corn rust; Zea mays, 168 h, read-out: protectant activity against corn rust in vivo, 25 ppm): 80 to 99%
pest or weed control at 100 ppm (corn rust; Zea mays, 168 h, read-out: protectant activity against corn rust in vivo, 100 ppm): 100%
pest or weed control at 400 ppm (corn rust; Zea mays, 168 h, read-out: protectant activity against corn rust in vivo, 400 ppm): 100%
pest or weed control at 0.4 µg/mL (wheat powdery mildew; Triticum aestivum, 168 h, read-out: control effect against wheat powdery mildew (%), 0.4 mg/L, protectant activity): 30%
pest or weed control at 1.6 µg/mL (wheat powdery mildew; Triticum aestivum, 168 h, read-out: control effect against wheat powdery mildew (%), 1.6 mg/L, protectant activity): 40%
pest or weed control at 6.25 µg/mL (wheat powdery mildew; [8]): 90%
pest or weed control at 25 µg/mL (wheat powdery mildew; [8]): 100%
pest or weed control at 100 µg/mL (wheat powdery mildew; [8]): 100%
pest or weed control at 400 µg/mL (wheat powdery mildew; [8]): 100%
pest or weed control at 6.25 ppm (wheat powdery mildew; Triticum aestivum, 168 h, read-out: protectant activity against wheat powdery mildew in vivo, 6.25 ppm): 80 to 99%
pest or weed control at 25 ppm (wheat powdery mildew; Triticum aestivum, 168 h): 100%
pest or weed control at 100 ppm (wheat powdery mildew; Triticum aestivum, 168 h, read-out: protectant activity against wheat powdery mildew in vivo, 100 ppm): 100%
pest or weed control at 400 ppm (wheat powdery mildew; Triticum aestivum, 168 h, read-out: protectant activity against wheat powdery mildew in vivo, 400 ppm): 100%
pest or weed control at 25 µg/mL (cucumber downy mildew; Cucumis sativus, 168 h, read-out: control effect against cucumber downy mildew (%), 25 mg/L, protectant activity): 100%
pest or weed control at 50 µg/mL (cucumber downy mildew; Cucumis sativus, 168 h, read-out: control effect against cucumber downy mildew (%), 50 mg/L, protectant activity): 100%
pest or weed control at 100 µg/mL (cucumber downy mildew; Cucumis sativus, 168 h, read-out: control effect against cucumber downy mildew (%), 100 mg/L, protectant activity): 100%
pest or weed control at 400 µg/mL (cucumber downy mildew; Cucumis sativus, 168 h, read-out: control effect against cucumber downy mildew (%), 400 mg/L, protectant activity): 100%
pest or weed control at 25 ppm (cucumber downy mildew; Cucumis sativus, 168 h): 100%
pest or weed control at 50 ppm (cucumber downy mildew; Cucumis sativus, 168 h, read-out: protectant activity against cucumber downy mildew in vivo, 50 ppm): 100%
pest or weed control at 100 ppm (cucumber downy mildew; Cucumis sativus, 168 h, read-out: protectant activity against cucumber downy mildew in vivo, 100 ppm): 100%
pest or weed control at 400 ppm (cucumber downy mildew; Cucumis sativus, 168 h, read-out: protectant activity against cucumber downy mildew in vivo, 400 ppm): 100%
